# Results: patent publication US6248739A, “Quinolinecarboxamides as antiviral agents” (Pharmacia & Upjohn Company, priority 1999, dated 2001)
# Target: T1, HCMV polymerase (Human cytomegalovirus, UniProt P08546)
# T1 construct: made in house; host or cells: recombinant baculovirus-infected SF-9 insect cells
# Test: biochemical
# Details: not given
# Experimental: The HCMV polymerase assay is performed using a scintillation proximity assay (SPA) as described in several references, such as N. D. Cook, et al., Pharmaceutical Manufacturing International, pages 49-53 (1992); K. Takeuchi, Laboratory Practice, September issue (1992); U.S. Pat. No. 4,568,649 (1986); which are incorporated by reference herein. Reactions are performed in 96-well plates. The assay is conducted in 100 μl volume with 5.4 mM HEPES (pH 7.5), 11.7 mM KCl, 4.5 mM MgCl2, 0.36 mg/ml BSA, and 90 nM ^3 H-dTTP. Assays are run with and without CHAPS, (3-[(3-Cholamidopropyl)dimethylammonio]-1-propane-sulfonate) at a final concentration of 2 mM. HCMV polymerase is diluted in enzyme dilution buffer containing 50% glycerol, 250 mM NaCl, 10 mM HEPES (pH 7.5), 100 μg/ml BSA, and 0.01% sodium azide. The HCMV polymerase, which is expressed in recombinant baculovirus-infected SF-9 cells and purified according to literature procedures, is added at 10% (or 10 μl) of the final reaction volume, i.e., 100 μl. Compounds are diluted in 50% DMSO and 10 μl are added to each well. Control wells contain an equivalent concentration of DMSO. Unless noted otherwise, reactions are initiated via the addition of 6 nM biotinylated poly(dA)-oligo(dT) template/primer to reaction mixtures containing the enzyme, substrate, and compounds of interest. Plates are incubated in a 25 C. or 37 C. H2 O bath and terminated via the addition of 40 μl/reaction of 0.5 M EDTA (pH 8) per well. Reactions are terminated within the time-frame during which substrate incorporation is linear and varied depending upon the enzyme and conditions used, i.e., 30 min. for HCMV polymerase. Ten μl of streptavidin-SPA beads (20 mg/ml in PBS/10% glycerol) are added following termination of the reaction. Plates are incubated 10 min. at 37 C., then equilibrated to room temperature, and counted on a Packard Topcount. Linear regressions are performed and IC50 's are calculated using computer software.
# A modified version of the above HCMV polymerase assay is performed as described above, but with the following changes: Compounds are diluted in 100% DMSO until final dilution into assay buffer. In the previous assay, compounds are diluted in 50% DMSO. 4.5 mM dithiotherotol (DTT) is added to the polymerase buffer.
# T1 sequence (P08546 whole entry): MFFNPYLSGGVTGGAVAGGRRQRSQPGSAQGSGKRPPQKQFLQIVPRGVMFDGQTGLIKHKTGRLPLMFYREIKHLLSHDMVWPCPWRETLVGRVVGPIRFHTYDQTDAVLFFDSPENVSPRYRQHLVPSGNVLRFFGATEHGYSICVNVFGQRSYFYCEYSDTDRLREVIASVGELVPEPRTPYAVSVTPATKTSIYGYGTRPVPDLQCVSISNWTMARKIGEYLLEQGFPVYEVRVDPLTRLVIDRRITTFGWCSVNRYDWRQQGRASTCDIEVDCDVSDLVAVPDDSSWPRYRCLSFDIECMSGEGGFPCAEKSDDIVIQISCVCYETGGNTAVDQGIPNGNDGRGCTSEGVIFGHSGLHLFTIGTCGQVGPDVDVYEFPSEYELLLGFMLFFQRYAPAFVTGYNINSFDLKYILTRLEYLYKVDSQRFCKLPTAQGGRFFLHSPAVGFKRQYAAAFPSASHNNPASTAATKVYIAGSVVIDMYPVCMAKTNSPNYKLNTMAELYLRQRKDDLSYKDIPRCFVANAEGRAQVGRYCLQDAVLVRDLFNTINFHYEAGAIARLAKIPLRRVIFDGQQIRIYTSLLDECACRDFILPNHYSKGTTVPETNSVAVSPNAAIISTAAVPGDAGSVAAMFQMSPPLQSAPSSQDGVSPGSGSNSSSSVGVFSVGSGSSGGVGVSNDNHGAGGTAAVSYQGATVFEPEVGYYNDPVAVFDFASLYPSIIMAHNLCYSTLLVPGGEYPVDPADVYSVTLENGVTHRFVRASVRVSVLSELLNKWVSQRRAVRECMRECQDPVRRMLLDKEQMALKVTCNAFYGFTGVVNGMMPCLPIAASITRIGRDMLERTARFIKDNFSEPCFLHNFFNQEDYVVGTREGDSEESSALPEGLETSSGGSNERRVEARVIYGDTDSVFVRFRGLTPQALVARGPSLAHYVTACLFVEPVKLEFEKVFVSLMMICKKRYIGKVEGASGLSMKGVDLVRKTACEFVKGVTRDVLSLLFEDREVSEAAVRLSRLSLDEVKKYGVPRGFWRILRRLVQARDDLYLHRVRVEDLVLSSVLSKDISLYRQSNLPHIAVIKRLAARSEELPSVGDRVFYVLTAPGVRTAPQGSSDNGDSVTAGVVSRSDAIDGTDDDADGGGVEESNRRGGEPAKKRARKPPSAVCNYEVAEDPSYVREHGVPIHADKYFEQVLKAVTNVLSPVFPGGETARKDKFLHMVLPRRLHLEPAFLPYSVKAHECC
row,SMILES,IC50
1,"O=C(NCc1ccc(Cl)cc1)c1cn(CCN2CCOCC2)c2ccc(C#CCO)cc2c1=O [Example 19, N-(4-Chlorobenzyl)-6-(3-hydroxy-1-propynyl)-1-[2-(4-morpholinyl)ethyl]-4-oxo-1,4-dihydro-3-quinolinecarboxamide]",1800 nM

# Same assay, conditions: HCMV polymerase; SPA; modified assay: compounds in 100% DMSO, 4.5 mM DTT
row,SMILES,IC50
1,COCCOCCn1cc(C(=O)NCc2ccc(Cl)cc2)c(=O)c2cc(CN3CCOCC3)ccc21 [Example 84],1200 nM
2,"O=C(NCc1ccc(Cl)cc1)c1cn(CCCSCCCO)c2ccc(CN3CCOCC3)cc2c1=O [Example 66, N-(4-Chlorobenzyl)-1-{3-[(3-hydroxypropyl)sulfanyl]propyl}-6-(4-morpholinylmethyl)-4-oxo-1,4-dihydro-3-quinolinecarboxamide]",1100 nM
3,"Cn1cc(C(=O)NCc2ccc(Cl)cc2)c(=O)c2cc(CN3CCOc4ccccc43)ccc21 [Example 49, N-(4-Chlorobenzyl)-6-(2,3-dihydro-4H-1,4-benzoxazin-4-ylmethyl)-1-methyl-4-oxo-1,4-dihydro-3-quinolinecarboxamide]",2200 nM
4,O=C(NCc1ccc(Cl)cc1)c1cn(C[S+]([O-])c2ccc(Cl)cc2)c2ccc(CN3CCOCC3)cc2c1=O (stereo not shown) [Example 102],590 nM
5,"Cn1cc(C(=O)NCc2ccc(Cl)cc2)c(=O)c2cc(CCCOP(=O)(OC(C)(C)C)OC(C)(C)C)ccc21 [Example 32, Di(tert-butyl) 3-(3-{[(4-chlorobenzyl)amino]carbonyl}-1-methyl-4-oxo-1,4-dihydro-6-quinolinyl)propyl phosphate]",27200 nM
6,"Cn1cc(C(=O)NCc2ccc(Cl)cc2)c(=O)c2cc(CN3CCCSCC3)ccc21 [Example 47, N-(4-Chlorobenzyl)-1-methyl-4-oxo-6-(1,4-thiazepan-4-ylmethyl)-1,4-dihydro-3-quinolinecarboxamide]",7200 nM
7,"Cn1cc(C(=O)NCc2ccc(Cl)cc2)c(=O)c2cc(C#CCO)cc(F)c21 [Example 8, N-(4-Chlorobenzyl)-8-fluoro-6-(3-hydroxy-1-propynyl)-1-methyl-4-oxo-1,4-dihydro-3-quinolinecarboxamide]",1000 nM
8,"CC(C)(C)OP(=O)(OCCCc1ccc2c(c1)c(=O)c(C(=O)NCc1ccc(Cl)cc1)cn2C1CC1)OC(C)(C)C [Example 34, Di(tert-butyl) 3-(3-{[(4-chlorobenzyl)amino]carbonyl}-1-cyclopropyl-4-oxo-1,4-dihydro-6-quinolinyl)propyl phosphate]",> 20000 nM
9,"COCCOCn1cc(C(=O)NCc2ccc(Cl)cc2)c(=O)c2cc(CN3CCOCC3)ccc21 [Example 105, N-(4-Chlorobenzyl)-1-[(2-methoxyethoxy)methyl]-6-(4-morpholinylmethyl)-4-oxo-1,4-dihydro-3-quinolinecarboxamide]",1300 nM
10,"Cn1cc(C(=O)NCc2ccc(Cl)cc2)c(=O)c2cc(/C=C/CO)ccc21 [Example 22, N-(4-chlorobenzyl)-6-[(E)-3-hydroxy-1-propenyl]-1-methyl-4-oxo-1,4-dihydro-3-quinolinecarboxamide]",810 nM
11,"CN1CCN(n2cc(C(=O)NCc3ccc(Cl)cc3)c(=O)c3cc(CN4CCOCC4)ccc32)CC1 [Example 113, N-(4Chlorobenzyl)-1-(4methyl-1-piperazinyl)-6-(4-morpholinylmethyl)-4-oxo-1,4-dihydro-3-quinolinecarboxamide]",640 nM
12,"Cn1cc(C(=O)NCc2ccc(Cl)cc2)c(=O)c2cc(CN3CC(=NO)C3)ccc21 [Example 99, N-(4-Chlorobenzyl)-6-{[3-(ydroxyimino)-1-azetidinyl]methyl}-1-methyl-4-oxo-1,4-dihydro-3-quinolinecarboxamide]",8000 nM
13,"COCCOCCn1cc(C(=O)NCc2ccc(Cl)cc2)c(=O)c2cc(CSC)ccc21 [Example 93, N-(4-Chlorobenzyl)-1-[2-(2-methoxyethoxy)ethyl]-6-[(methylsulfanyl)methyl]-4-oxo-1,4-dihydro-3-quinolinecarboxamide]",6200 nM
14,"O=C(NCc1ccc(Cl)cc1)c1cn(C2CC2)c2ccc(CN3CCOCC3)cc2c1=O [Example 27, N-(4-Chlorobenzyl)-1-cyclopropyl-6-(4-morpholinylmethyl)-4-oxo-1,4-dihydro-3-quinolinecarboxamide]",610 nM
15,"O=C(NCc1ccc(Cl)cc1)c1cn(CS(=O)(=O)c2ccccc2)c2ccc(CN3CCOCC3)cc2c1=O [Example 82, N-(4-Chlorobenzyl)-6-(4-morpholinylmethyl)-4-oxo-1-[(phenylsulfonyl)methyl]-1,4-dihydro-3-quinolinecarboxamide]",530 nM
16,"C=CCOn1cc(C(=O)NCc2ccc(Cl)cc2)c(=O)c2ccccc21 [Example 122, 1-(Allyloxy)-N-(4-chlorobenzyl)-4-oxo-1,4-dihydro-3-quinolinecarboxamide]",2800 nM
17,"COCCOCCn1cc(C(=O)NCc2ccc(Cl)cc2)c(=O)c2cc(C#CCO)ccc21 [Example 42, N-(4-Chlorobenzyl)-6-(3-hydroxy-1-propynyl)-1-[2-(2-methoxyethoxy)ethyl]-4-oxo-1,4-dihydro-3-quinolinecarboxamide]",1200 nM
18,"COCCOCCn1cc(C(=O)NCc2ccc(Cl)cc2)c(=O)c2cc(CN(C)CC#N)ccc21 [Example 86, N-(4-Chlorobenzyl)-6-{[(cyanomethyl)(methyl)amino]methyl}-1-[2-(2-methoxyethoxy)ethyl]-4-oxo-1,4-dihydro-3-quinolinecarboxamide]",2500 nM
19,CSCn1cc(C(=O)NCc2ccc(Cl)cc2)c(=O)c2cc(CN3CCOCC3)ccc21 [Example 73],1100 nM
20,"O=C(NCc1ccc(Cl)cc1)c1cn(CCOCCO)c2ccc(CN3CCOCC3)cc2c1=O [Example 57, N-(4-Chlorobenzyl)-1-[2-(2-hydroxyethoxy)ethyl]-6-(4-morpholinylmethyl)-4-oxo-1,4-dihydro-3-quinolinecarboxamide]",1200 nM
21,"Cn1cc(C(=O)NCc2ccc(Cl)cc2)c(=O)c2cc(/C=C\CO)ccc21 [Example 23, N-(4-chlorobenzyl)-6-[(Z)-3-hydroxy-1-propenyl]-1-methyl-4-oxo-1,4-dihydro-3-quinolinecarboxamide]",620 nM
22,"CCN(CC)CCn1cc(C(=O)NCc2ccc(Cl)cc2)c(=O)c2cc(C#CCO)cc(F)c21 [Example 10, N-(4-Chlorobenzyl)-1-[2-(diethylamino)ethyl]-8-fluoro-6-(3-hydroxy-1-propynyl)-4-oxo-1,4-dihydro-3-quinolinecarboxamide]",1700 nM
23,"O=C(NCc1ccc(Cl)cc1)c1cn(C2CCNCC2)c2ccc(CN3CCOCC3)cc2c1=O [Example 110, N-(4-Chlorobenzyl)-6-(4-morpholinylmethyl)-4-oxo-1-(4-piperidinyl)-1,4-dihydro-3-quinolinecarboxamide]",670 nM
24,"CCC(C)n1cc(C(=O)NCc2ccc(Cl)cc2)c(=O)c2cc(C#CCO)ccc21 (stereo not shown) [Example 2, 1-(sec-butyl)-N-(4-chlorobenzyl)-6-(3-hydroxy-1-propynyl)-4-oxo-1,4-dihydro-3-quinolinecarboxamide]",1600 nM
25,"Cn1cc(C(=O)NCc2ccc(Cl)cc2)c(=O)c2cc(CN=[N+]=[N-])ccc21 [Example 51, 6-(Azidomethyl)-N-(4-chlorobenzyl)-1-methyl-4-oxo-1,4-dihydro-3-quinolinecarboxamide]",1300 nM
26,"Nn1cc(C(=O)NCc2ccc(Cl)cc2)c(=O)c2cc(CCCO)ccc21 [Example 119, 1-Amino-N-(4-chlorobenzyl)-6-(3-hydroxypropyl)-4-oxo-1,4-dihydro-3-quinolinecarboxamide]",500 nM
27,"CN1CCC(n2cc(C(=O)NCc3ccc(Cl)cc3)c(=O)c3cc(CN4CCOCC4)ccc32)CC1 [Example 109, N-(4-Chlorobenzyl)-1-(1-methyl-4-piperidinyl)-6-(4-morpholinylmethyl)-4-oxo-1,4-dihydro-3-quinolinecarboxamide]",480 nM
28,"O=C(NCc1ccc(Cl)cc1)c1cn(CCO)c2ccc(C#CCO)cc2c1=O [Example 30, N-(4-Chlorobenzyl)-1-(2-hydroxyethyl)-6-(3-hydroxy-1-propynyl)-4-oxo-1,4-dihydro-3-quinolinecarboxamide]",950 nM
29,"CCN(CCO)c1ccc2c(c1)c(=O)c(C(=O)NCc1ccc(Cl)cc1)cn2C [Example 24, N-(4-Chlorobenzyl)-6-[ethyl(2-hydroxyethyl)amino]-1-methyl-4-oxo-1,4-dihydro-3-quinolinecarboxamide]",23600 nM
30,"COCCOCCn1cc(C(=O)NCc2ccc(Cl)cc2)c(=O)c2cc(CCCO)ccc21 [Example 83, N-(4-chlorobenzyl)-6-(3-hydroxypropyl)-1-[2-(2-methoxyethoxy)ethyl]-4-oxo-1,4-dihydro-3-quinolinecarboxamide]",600 nM
